Laboratory results from patent US4154852A, “Novel aminobenzocycloheptenes” (Roussel Uclaf, priority 1976, dated 1979).

Assays:
[1] = test system: 5-hydroxytryptophane (5 HTP) effects; assay: Potentialization of 5 HTP effects (trembling) in mice; assay type: in vivo; details: Mus musculus, i.p. one hour before 200 mg/kg 5-HTP i.p., observed every 15 minutes for one hour, read-out: MAD (minimum active dose), potentialization of 5 HTP effects
Protocol: The administration of 5-hydroxytryptophane (5 HTP) to mice pretreated with an antidepressant induces in the mice a particular behaviour namely the appearance of trembling.
The test product was intraperitoneally administered in increasing doses one hour before the intraperitoneal administration of 200 mg/kg of 5-HTP and the symptoms were observed were noted every 15 minutes for one hour to determine the minimum active dose (MAD) of the test product.

effects of L-dopa = assay: Potentialization of effects of L-dopa in iproniazide-pretreated mice; assay type: in vivo; details: Mus musculus, ip; i.p. one hour before L-dopa 100 mg/kg i.p.; iproniazide 75 mg/kg i.p. 18 hours before; male mice; read-out: ED50 (dose which potentializes by 50% the L-dopa effects)
Protocol: The administration of L-dopa to mice pretreated 18 hours previously with iproniazide produced certain number of symptoms; muscular hypertonicity, hyperactivity, agitation, crying, aggressiveness, salivation and exophthalmy. The intensity of these effects is potentialized by administration of an antidepressant one hour before the administration of L-dopa. Male mice received intraperitoneally 75 mg/kg of iproniazide 18 hours before the start of the test and the tested product was intraperitoneally administered in aqueous solution in increasing doses. One hour later, L-dopa was intraperitoneally administered at a dose of 100 mg/kg and the different symptoms were observed 15 and 30 minutes later. They were evaluated on a scale of 0 to 3 for each animal and the totals for each dose were determined.

serotonine (5HT) uptake = assay: Inhibition of serotonine uptake in vitro (14C-5HT, impure brain synaptosomes); assay type: biochemical, female rat; details: rat brain synaptosomes, 37° C., 5 minutes, 14 C-5HT 10^-7 M; read-out: Test in vitro I.C. 50 (inhibition of 14C-5HT uptake)
Protocol: (§1) The inhibition of serotonine (5HT) uptake was measured in impure synaptosomes prepared from the entire brain of a female rat 19 to 21 days old using the technique of Kannengiesser et al. [Biochemical Pharmacology,Vol. 22, (1973) p. 73]. Diverse concentrations of the products were placed in an incubator with the preparation at 37° C. for 5 minutes in the presence of 14 C-5HT at a concentration of 10^-7 M. The 50% inhibiting concentration (IC50), dose which inhibits by 50% the uptake of 14C-5HT in the synaptosomes was determined graphically and the IC50 dose for the compounds is reported in Table V.

Acute toxicity in mice = details: mouse, in vivo, ip, intraperitoneal, determined 48 hours later, read-out: DL50 (dose which kills 50% of mice)
Protocol: The DL50 dose which kills 50% of mice after intraperitoneal administration of the tested compound was determined 48 hours later and the DL50 for the compounds is reported in Table IV.

uptake of 14C-5HT = assay: Inhibition of serotonine uptake in vivo (synaptosomes prepared after administration to rats); set-up: key: the activity was expressed in increasing number of + signs; ++: the activity was expressed in increasing number of + signs; +++: the activity was expressed in increasing number of + signs; details: 5 to 20 mg/kg i.p., female rats 19 to 21 days old, brain removed after 30 minutes
Protocol: as §1
The tested products were intraperitoneally administered to groups of female rats 19 to 21 days old at doses of 5 to 20 mg/kg. After 30 minutes, the brain was removed and synaptosomes were prepared and placed in an incubator in the presence of 14 C-5HT as indicated in the previous test.

[2] = test system: effects of nialamide (monoamine oxidase inhibitor); assay: Potentialization of effects of monoamine oxidase inhibitor (nialamide) in mice, actimetric measurement; assay type: in vivo; details: nialamide 100 mg/kg i.p. 30 minutes before, 6 hours
Protocol: The administration of a monoamine oxidase inhibitor to mice induces a hyperactive movement of the animals which is able to be potentialized by an antidepressant. Using the procedure of Carlsson et al [Brain Research, Vol. 12 (1969), p. 456], a dose of 100 mg/kg of nialamide was intraperitoneally administered to mice 30 minutes before the intraperitoneal administration of the tested product and the values of actimetric measurements were recorded every 30 minutes for 6 hours. Potentialization of the effects of nialamide for the tested product was expressed in increasing number of + signs for a determined dose in mg/kg.

| SMILES | minimal effective dose [1] | ED50 (effects of L-dopa) | IC50 (serotonine (5HT) uptake) | LD50 at 48 h (Acute toxicity in mice) | In vivo Test (relative power to inhibit the uptake of 14C-5HT) (uptake of 14C-5HT) | Potentialization of Nialamide ([2]; tested product 5 mg/kg i.p.) | Potentialization of Nialamide ([2]; tested product 20 mg/kg i.p.) | Potentialization of Nialamide ([2]; tested product 1 mg/kg i.p.) |
| --- | --- | --- | --- | --- | --- | --- | --- | --- |
| CNC1C=Cc2cc([N+](=O)[O-])ccc2CC1.Cl (stereo not shown) [Example 1, 2-nitro-7-methylamino-6,7-dihydro [5H] benzocycloheptene hydrochloride] | 10 mg/kg | 1 mg/kg | 0.32 µM | 75 mg/kg | +++ | + | ++ |  |
| CNC1C=Cc2cc(N)ccc2CC1.O=C(O)/C=C/C(=O)O (stereo not shown) [Example 2, 2-amino-7-methylamino-6,7-dihydro [5H] benzocycloheptene fumarate] | 5 mg/kg | 10 mg/kg | 4 µM | 75 mg/kg | + | + | ++ |  |
| CNC1C=Cc2cc(OC)ccc2CC1.Cl (stereo not shown) [Example 3, 2-methoxy-7-methylamino-6,7-dihydro [5H] benzocycloheptene hydrochloride] |  | 5 mg/kg | 0.27 µM | 50 mg/kg | ++ | ++ |  | + |
| CNC1C=Cc2cc(O)ccc2CC1.Cl (stereo not shown) [Example 4, 7-methylamino-6,7-dihydro [5H] benzocycloheptene-2-ol hydrochloride] |  |  | 0.38 µM | 50 mg/kg |  |  |  |  |
